Experiments:
Assay type in all cases: cell-based, human
MIP-1α = test: LPS-stimulated PBMC cytokine production, multiplex cytokine analysis: MIP-1α; conditions: PBMC 2×10^6 cells/ml, compound 1 hour, then 1 ng/ml LPS 18 hours
Procedure: (§1) Peripheral blood mononuclear cells (PBMCs) were isolated from the blood of healthy human donors by Ficoll cell separation. The PBMCs were seeded at a concentration of 2×10^6 cells/ml and treated for 1 hour at 37° C. with various concentrations of IMiD compounds or control DMSO (0.25%), before stimulation with 1 ng/ml LPS for 18 hours at 37° C.
(§2) Supernatant samples were subjected to multiplex cytokine analysis (Luminex IS100 instrument) to quantify secreted levels of IL-6, IL-8, IL1-beta (IL-1β), GM-CSF, MDC, MIP-1alpha (MIP-1α), MIP-1beta (MIP-1β) and TNF-alpha (TNF-α) (see e.g. FIGS. 7A-C).
(§3) IC50 (half maximal inhibitory concentration) values were calculated to measure the potency of each IMiD compound in inhibiting LPS-stimulated secretion of each cytokine (see Table 25).

TNF-α = test: LPS-stimulated PBMC cytokine production, multiplex cytokine analysis: TNF-α; conditions: PBMC 2×10^6 cells/ml, compound 1 hour, then 1 ng/ml LPS 18 hours
Procedure: as §1, §2, §3

[1] = test system: IL-6, IL-8, IL-1β, GM-CSF, MDC, MIP-1α, MIP-1β and TNF-α; test: LPS-induced secretion of proinflammatory cytokines from PBMCs (whole multiplex panel, result in words); conditions: pre-treatment 1 hour, 1 ng/ml LPS 18 hours
Procedure: Peripheral blood mononuclear cells (PBMCs) from healthy volunteers were seeded at a concentration of 2×10^6 cells/ml and treated with the indicated concentrations of IMiD compounds or control DMSO (0.25%) for 1 hour, before stimulation with 1 ng/ml LPS. After 18 hours, proinflammatory cytokine levels in the supernatant were assessed by multiplex cytokine analysis.
as §1, §2

MDC = test: LPS-stimulated PBMC cytokine production, multiplex cytokine analysis: MDC; conditions: PBMC 2×10^6 cells/ml, compound 1 hour, then 1 ng/ml LPS 18 hours
Procedure: (§4) Peripheral blood mononuclear cells (PBMCs) were isolated from the blood of healthy human donors by Ficoll cell separation. […] Supernatant samples were subjected to multiplex cytokine analysis (Luminex IS100 instrument) to quantify secreted levels of IL-6, IL-8, IL1-beta (IL-1β), GM-CSF, MDC, MIP-1alpha (MIP-1α), MIP-1beta (MIP-1β) and TNF-alpha (TNF-α) (see e.g. FIGS. 7A-C). IC50 (half maximal inhibitory concentration) values were calculated to measure the potency of each IMiD compound in inhibiting LPS-stimulated secretion of each cytokine (see Table 25).

MIP-1β = test: LPS-stimulated PBMC cytokine production, multiplex cytokine analysis: MIP-1β; conditions: PBMC 2×10^6 cells/ml, compound 1 hour, then 1 ng/ml LPS 18 hours
Procedure: as §4

IL-6 = test: LPS-stimulated PBMC cytokine production, multiplex cytokine analysis: IL-6; conditions: PBMC 2×10^6 cells/ml, compound 1 hour, then 1 ng/ml LPS 18 hours
Procedure: as §4

IL-8 = test: LPS-stimulated PBMC cytokine production, multiplex cytokine analysis: IL-8; conditions: PBMC 2×10^6 cells/ml, compound 1 hour, then 1 ng/ml LPS 18 hours
Procedure: as §1, §2, §3

GM-CSF = test: LPS-stimulated PBMC cytokine production, multiplex cytokine analysis: GM-CSF; conditions: PBMC 2×10^6 cells/ml, compound 1 hour, then 1 ng/ml LPS 18 hours
Procedure: as §4

IL-1β = test: LPS-stimulated PBMC cytokine production, multiplex cytokine analysis: IL-1β; conditions: PBMC 2×10^6 cells/ml, compound 1 hour, then 1 ng/ml LPS 18 hours
Procedure: as §4

IC50 (MIP-1α; Homo sapiens, PBMC) [µM]	IC50 (TNF-α; Homo sapiens, PBMC) [µM]	IC50 (MDC; Homo sapiens, PBMC) [µM]	IC50 (MIP-1β; Homo sapiens) [µM]	IC50 (IL-6; Homo sapiens, PBMC) [µM]	IC50 (IL-8; Homo sapiens) [µM]	IC50 (GM-CSF; Homo sapiens, PBMC) [µM]	IC50 (IL-1β; Homo sapiens, PBMC) [µM]	IC50 (MIP-1α) [µM]	IC50 (TNF-α) [µM]	IC50 (MDC) [µM]	IC50 (MIP-1β) [µM]	IC50 (IL-6) [µM]	IC50 (IL-8) [µM]	IC50 (GM-CSF) [µM]	IC50 (IL-1β) [µM]	IC50 (TNF-α; Homo sapiens) [µM]	IC50 (IL-6; Homo sapiens) [µM]	IC50 (IL-1β; Homo sapiens) [µM]	Compound	LPS-induced secretion of proinflammatory cytokines from PBMCs (effect in words) [1]
> 10	> 10	> 10	> 10	> 10	> 10	> 10	> 10												O=C1CCC(N2C(=O)c3ccccc3C2=O)C(=O)N1 (stereo not shown) [Thalidomide, 2-(2,6-dioxopiperidin-3-yl)-2,3 dihydro-1H-isoindole-1,3-dione]	minimal to no effect
								0.45	0.0095	0.012	> 10	0.083	> 10	0.039	0.0062				O=C1CCC(N2Cc3c(OCc4ccc(CN5CCOCC5)cc4)cccc3C2=O)C(=O)N1 (single isomer, unassigned) [Compound B]	inhibited
0.3			> 10		> 10											0.034	0.06	0.054	Cc1nc2cccc(N)c2c(=O)n1C1CCC(=O)NC1=O (stereo not shown) [Avadomide, 3-(5-amino-2-methyl-4-oxo-3,4-dihydroquinazolin-3-yl)piperidine-2,6-dione]	inhibited
			> 10		> 10			0.19	0.0018	0.0026		0.01		0.0092	0.00085				O=C1CCC(N2Cc3c(OCc4ccc(CN5CCOCC5)cc4)cccc3C2=O)C(=O)N1 (single isomer, unassigned) [Compound A]	inhibited

— patent US20230172923A1, “METHODS OF TREATING CYTOKINE-RELATED ADVERSE EVENTS” (BRISTOL-MYERS SQUIBB COMPANY, priority 2020, published 2023)
